The values below come from ChEMBL document CHEMBL3044687, “Microwave-assisted synthesis of some novel and potent antibacterial and antifungal compounds with biological screening” (2012).

Format in all cases: functional
Common to all, as to settings: read-out: DIZ

Assay [1] concerns Candida albicans. As to the kind of experiment: Antifungal activity against Candida albicans at 100 ug/ml after 48 hr by disk diffusion method. In general terms: A growth-free zone around the sample is the usual read-out of agar diffusion tests.
Assay [2] concerns Aspergillus niger. As to the kind of experiment: Antifungal activity against Aspergillus niger at 100 ug/ml after 48 hr by disk diffusion method.
Assay [3] relates to Bacillus subtilis. In words: Antibacterial activity against Bacillus subtilis at 100 ug/ml after 24 hr by disk diffusion method.
Assay [4] has as its system Candida albicans. As to the kind of experiment: Antifungal activity against Candida albicans at 50 ug/ml after 48 hr by disk diffusion method.
Assay [5] relates to Aspergillus niger. In words: Antifungal activity against Aspergillus niger at 50 ug/ml after 48 hr by disk diffusion method.
In assay [6] the test system is Staphylococcus aureus. As to the kind of experiment: Antibacterial activity against Staphylococcus aureus at 50 ug/ml after 24 hr by disk diffusion method.
Assay [7] concerns Pseudomonas aeruginosa. In words: Antibacterial activity against Pseudomonas aeruginosa at 100 ug/ml after 24 hr by disk diffusion method.
Assay [8] concerns Bacillus subtilis. In words: Antibacterial activity against Bacillus subtilis at 200 ug/ml after 24 hr by disk diffusion method.
Assay [9] relates to Escherichia coli. As to the kind of experiment: Antibacterial activity against Escherichia coli at 200 ug/ml after 24 hr by disk diffusion method.
Assay [10] concerns Pseudomonas aeruginosa. As to the kind of experiment: Antibacterial activity against Pseudomonas aeruginosa at 50 ug/ml after 24 hr by disk diffusion method.
Assay [11] has as its system Pseudomonas aeruginosa. As to the kind of experiment: Antibacterial activity against Pseudomonas aeruginosa at 200 ug/ml after 24 hr by disk diffusion method.
Assay [12] concerns Bacillus subtilis. In words: Antibacterial activity against Bacillus subtilis at 50 ug/ml after 24 hr by disk diffusion method.
For assay [13], the system named is Aspergillus niger. In words: Antifungal activity against Aspergillus niger at 200 ug/ml after 48 hr by disk diffusion method.
Assay [14] relates to Candida albicans. In words: Antifungal activity against Candida albicans at 200 ug/ml after 48 hr by disk diffusion method.
The test system of assay [15] is Staphylococcus aureus. In words: Antibacterial activity against Staphylococcus aureus at 100 ug/ml after 24 hr by disk diffusion method.
The test system of assay [16] is Escherichia coli. As to the kind of experiment: Antibacterial activity against Escherichia coli at 50 ug/ml after 24 hr by disk diffusion method.
The test system of assay [17] is Staphylococcus aureus. As to the kind of experiment: Antibacterial activity against Staphylococcus aureus at 200 ug/ml after 24 hr by disk diffusion method.
The test system of assay [18] is Escherichia coli. As to the kind of experiment: Antibacterial activity against Escherichia coli at 100 ug/ml after 24 hr by disk diffusion method.

As to `CCN(CC)CN1C(=O)NC(c2ccccc2)(c2ccccc2)C1=O`, the zone of inhibition at 100 µg/mL in the assay with Candida albicans [1] came out at 10 mm; in the assay with Aspergillus niger [2] it was 10 mm; with Bacillus subtilis [3], 9 mm; in the assay on Pseudomonas aeruginosa [7], 9 mm; in the assay on Staphylococcus aureus [15] it was 10 mm; in the assay on Escherichia coli [18] it was 13 mm. The zone of inhibition at 50 µg/mL in the assay on Candida albicans [4] was determined as 9 mm; in the assay on Aspergillus niger [5], 8 mm; with Staphylococcus aureus [6] it was 5 mm; with Pseudomonas aeruginosa [10], 5 mm; in the assay on Bacillus subtilis [12], 3 mm; with Escherichia coli [16] it was 3 mm. Besides, the zone of inhibition at 200 µg/mL in the assay on Bacillus subtilis [8] came out at 15 mm; in the assay with Escherichia coli [9], 18 mm; in the assay on Pseudomonas aeruginosa [11], 14 mm; with Aspergillus niger [13], 12 mm; with Candida albicans [14], 11 mm; in the assay on Staphylococcus aureus [17] it was 14 mm.

In the case of `O=C1N(c2ccccc2)C(=O)C(c2ccccc2)(c2ccccc2)N1CN1CCOCC1`, the zone of inhibition at 100 µg/mL amounted to 12 mm in the assay on Candida albicans [1]; 11 mm in the assay with Aspergillus niger [2]; 9 mm in the assay on Bacillus subtilis [3]; 6 mm in the assay on Pseudomonas aeruginosa [7]; 6 mm in the assay with Staphylococcus aureus [15]; 8 mm with Escherichia coli [18]. The zone of inhibition at 50 µg/mL in the assay with Candida albicans [4] was 10 mm; in the assay on Aspergillus niger [5] it was 10 mm; in the assay with Staphylococcus aureus [6] it was 5 mm; with Pseudomonas aeruginosa [10], 4 mm; in the assay with Bacillus subtilis [12], 4 mm; in the assay with Escherichia coli [16], 4 mm. The zone of inhibition at 200 µg/mL in the assay on Bacillus subtilis [8] is 11 mm; in the assay with Escherichia coli [9], 15 mm; with Pseudomonas aeruginosa [11], 11 mm; in the assay on Aspergillus niger [13], 12 mm; in the assay on Candida albicans [14], 15 mm; in the assay on Staphylococcus aureus [17], 9 mm.

As for `O=C1N(c2ccccc2)C(=O)C(c2ccccc2)(c2ccccc2)N1Cn1ccnc1`, the zone of inhibition at 100 µg/mL worked out at 11 mm with Candida albicans [1]; 12 mm in the assay with Aspergillus niger [2]; 11 mm in the assay on Bacillus subtilis [3]; 9 mm in the assay with Pseudomonas aeruginosa [7]; 9 mm with Staphylococcus aureus [15]; 14 mm in the assay with Escherichia coli [18]. In addition, the zone of inhibition at 50 µg/mL amounted to 10 mm in the assay on Candida albicans [4]; 10 mm in the assay with Aspergillus niger [5]; 4 mm in the assay on Staphylococcus aureus [6]; 5 mm in the assay with Pseudomonas aeruginosa [10]; 5 mm with Bacillus subtilis [12]; 5 mm in the assay with Escherichia coli [16]. In addition, the zone of inhibition at 200 µg/mL turned out to be 13 mm in the assay on Bacillus subtilis [8]; 19 mm with Escherichia coli [9]; 18 mm with Pseudomonas aeruginosa [11]; 13 mm with Aspergillus niger [13]; 13 mm with Candida albicans [14]; 18 mm in the assay with Staphylococcus aureus [17].

With `O=C1N(c2ccccc2)C(=O)C(c2ccccc2)(c2ccccc2)N1CNc1nccs1`, the zone of inhibition at 100 µg/mL in the assay with Candida albicans [1] was determined as 12 mm; in the assay with Aspergillus niger [2] it was 11 mm; with Pseudomonas aeruginosa [7] it was 12 mm; in the assay with Staphylococcus aureus [15], 10 mm; in the assay with Escherichia coli [18] it was 10 mm. The zone of inhibition at 50 µg/mL in the assay with Candida albicans [4] was 11 mm; in the assay on Aspergillus niger [5], 11 mm; with Staphylococcus aureus [6], 4 mm; with Pseudomonas aeruginosa [10] it was 4 mm; with Bacillus subtilis [12], 5 mm; with Escherichia coli [16], 5 mm. Besides, the zone of inhibition at 200 µg/mL with Bacillus subtilis [8] was determined as 13 mm; in the assay with Escherichia coli [9], 18 mm; in the assay on Pseudomonas aeruginosa [11], 18 mm; with Aspergillus niger [13], 11 mm; with Candida albicans [14] it was 13 mm; in the assay with Staphylococcus aureus [17], 18 mm.

Take `O=C1NC(c2ccccc2)(c2ccccc2)C(=O)N1CNc1nccs1`: the zone of inhibition at 100 µg/mL in the assay with Candida albicans [1] turned out to be 12 mm; with Aspergillus niger [2], 11 mm; in the assay with Bacillus subtilis [3], 11 mm; in the assay with Pseudomonas aeruginosa [7], 12 mm; with Staphylococcus aureus [15], 10 mm; in the assay on Escherichia coli [18] it was 15 mm. Moreover, the zone of inhibition at 50 µg/mL in the assay with Candida albicans [4] worked out at 11 mm; in the assay on Aspergillus niger [5], 11 mm; in the assay with Staphylococcus aureus [6], 4 mm; in the assay with Pseudomonas aeruginosa [10], 4 mm; in the assay on Bacillus subtilis [12] it was 5 mm; in the assay with Escherichia coli [16], 6 mm. The zone of inhibition at 200 µg/mL turned out to be 19 mm in the assay on Bacillus subtilis [8]; 24 mm in the assay on Escherichia coli [9]; 20 mm in the assay on Pseudomonas aeruginosa [11]; 11 mm in the assay with Aspergillus niger [13]; 13 mm with Candida albicans [14]; 21 mm with Staphylococcus aureus [17].

Consider `O=C1NC(c2ccccc2)(c2ccccc2)C(=O)N1Cn1ccnc1`, for which the zone of inhibition at 100 µg/mL with Candida albicans [1] is 24 mm; with Aspergillus niger [2] it was 17 mm; in the assay with Bacillus subtilis [3], 11 mm; in the assay with Pseudomonas aeruginosa [7] it was 10 mm; with Staphylococcus aureus [15], 11 mm; in the assay with Escherichia coli [18], 16 mm. For the same compound, the zone of inhibition at 50 µg/mL with Candida albicans [4] was 17 mm; in the assay on Aspergillus niger [5] it was 15 mm; in the assay on Staphylococcus aureus [6], 6 mm; with Pseudomonas aeruginosa [10], 6 mm; with Bacillus subtilis [12], 5 mm; in the assay with Escherichia coli [16], 6 mm. Further, the zone of inhibition at 200 µg/mL came to 15 mm with Bacillus subtilis [8]; 22 mm with Escherichia coli [9]; 20 mm in the assay with Pseudomonas aeruginosa [11]; 19 mm in the assay with Aspergillus niger [13]; 30 mm in the assay on Candida albicans [14]; 20 mm in the assay on Staphylococcus aureus [17].

`CN(C)CN1C(=O)N(c2ccccc2)C(=O)C1(c1ccccc1)c1ccccc1`: the zone of inhibition at 100 µg/mL with Candida albicans [1] is 18 mm; with Aspergillus niger [2], 18 mm; in the assay with Bacillus subtilis [3] it was 10 mm; in the assay on Pseudomonas aeruginosa [7], 10 mm; in the assay on Staphylococcus aureus [15], 9 mm; in the assay with Escherichia coli [18] it was 13 mm. Further, the zone of inhibition at 50 µg/mL with Candida albicans [4] is 16 mm; with Aspergillus niger [5], 16 mm; in the assay on Staphylococcus aureus [6] it was 4 mm; in the assay with Pseudomonas aeruginosa [10], 6 mm; in the assay on Bacillus subtilis [12], 5 mm; in the assay with Escherichia coli [16] it was 5 mm. In addition, the zone of inhibition at 200 µg/mL with Bacillus subtilis [8] is 18 mm; with Escherichia coli [9] it was 18 mm; with Pseudomonas aeruginosa [11], 14 mm; in the assay with Aspergillus niger [13], 18 mm; in the assay with Candida albicans [14], 19 mm; in the assay with Staphylococcus aureus [17] it was 12 mm.

As for `COC1=CC(=O)C[C@@H](C)[C@]12Oc1c(Cl)c(OC)cc(OC)c1C2=O` [GRISEOFULVIN], the zone of inhibition at 100 µg/mL with Candida albicans [1] came out at 25 mm; in the assay on Aspergillus niger [2], 24 mm. Also, the zone of inhibition at 50 µg/mL in the assay with Candida albicans [4] came out at 18 mm; in the assay with Aspergillus niger [5], 21 mm. Further, the zone of inhibition at 200 µg/mL in the assay on Aspergillus niger [13] and in the assay on Candida albicans [14] was 40 mm in each case.

On to `O=C1NC(c2ccccc2)(c2ccccc2)C(=O)N1CNc1nc2ccccc2s1`, for which the zone of inhibition at 100 µg/mL turned out to be 18 mm in the assay with Candida albicans [1]; 19 mm with Aspergillus niger [2]; 10 mm with Bacillus subtilis [3]; 12 mm in the assay with Pseudomonas aeruginosa [7]; 10 mm in the assay with Staphylococcus aureus [15]; 15 mm in the assay with Escherichia coli [18]. In addition, the zone of inhibition at 50 µg/mL was found to be 17 mm with Candida albicans [4]; 16 mm with Aspergillus niger [5]; 5 mm with Staphylococcus aureus [6]; 7 mm with Pseudomonas aeruginosa [10]; 7 mm in the assay on Bacillus subtilis [12]; 6 mm with Escherichia coli [16]. In addition, the zone of inhibition at 200 µg/mL amounted to 21 mm in the assay with Bacillus subtilis [8]; 23 mm in the assay on Escherichia coli [9]; 20 mm with Pseudomonas aeruginosa [11]; 31 mm in the assay on Aspergillus niger [13]; 32 mm with Candida albicans [14]; 19 mm in the assay with Staphylococcus aureus [17].

Consider `CC1(C)S[C@@H]2[C@H](NC(=O)[C@H](N)c3ccccc3)C(=O)N2[C@H]1C(=O)O` [AMPICILLIN], for which the zone of inhibition at 100 µg/mL in the assay on Bacillus subtilis [3] was 16 mm; in the assay with Pseudomonas aeruginosa [7], 14 mm; in the assay on Staphylococcus aureus [15], 14 mm; in the assay with Escherichia coli [18], 18 mm. Also, the zone of inhibition at 50 µg/mL in the assay with Staphylococcus aureus [6] amounted to 9 mm; in the assay on Pseudomonas aeruginosa [10], 9 mm; with Bacillus subtilis [12] it was 10 mm; with Escherichia coli [16], 10 mm. Also, the zone of inhibition at 200 µg/mL in the assay on Bacillus subtilis [8] is 26 mm; in the assay with Escherichia coli [9] it was 29 mm; in the assay with Pseudomonas aeruginosa [11], 23 mm; in the assay with Staphylococcus aureus [17], 23 mm.
